Measurements as given in publication PMC10648944, “Fumagillin inhibits growth of the enteric protozoan parasite Entamoeba histolytica by covalently binding to and selectively inhibiting methionine aminopeptidase 2” (Antimicrobial Agents and Chemotherapy, 2023).

T1: E. histolytica methionine aminopeptidase 2 (EhMetAP2) (Entamoeba histolytica, UniProt C4LWW4)
T1 construct: gene EHI_126880; full-length, N-terminal GST fusion (GST-EhMetAP2) expressed in S. cerevisiae
T1 sequence (C4LWW4 1-413): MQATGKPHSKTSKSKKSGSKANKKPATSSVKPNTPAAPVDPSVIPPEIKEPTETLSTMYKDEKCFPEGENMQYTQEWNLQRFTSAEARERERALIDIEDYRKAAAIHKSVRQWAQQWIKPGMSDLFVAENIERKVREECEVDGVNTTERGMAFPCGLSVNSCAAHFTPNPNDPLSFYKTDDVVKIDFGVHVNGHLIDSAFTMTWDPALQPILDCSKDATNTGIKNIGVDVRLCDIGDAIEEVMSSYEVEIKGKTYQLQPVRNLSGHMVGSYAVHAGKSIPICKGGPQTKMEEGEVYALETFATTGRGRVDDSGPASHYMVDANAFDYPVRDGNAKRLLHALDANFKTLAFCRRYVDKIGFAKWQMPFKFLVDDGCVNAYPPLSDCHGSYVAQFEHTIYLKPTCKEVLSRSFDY

B1: E. histolytica methionine aminopeptidase 2 (EhMetAP2) (Entamoeba histolytica HM-1:IMSS) (protein)
chain: T1 sequence (C4LWW4 1-413)
notes: full-length, N-terminal GST fusion (GST-EhMetAP2) expressed in S. cerevisiae

How the values were obtained:
[1] = target: T1, E. histolytica methionine aminopeptidase 2 (EhMetAP2); assay: fluorogenic Met-MCA aminopeptidase assay with purified GST-EhMetAP2, double-reciprocal plot; assay type: biochemical
[2] = substrate: CSCC[C@H](N)C(=O)Nc1ccc2c(C)cc(=O)oc2c1; assay: fluorometric hydrolysis by purified GST-EhMetAP2; Km by end point assay; assay type: biochemical, Entamoeba histolytica; settings: Mn2+ / Mg2+ ([…] MnCl2, […] MgCl2 in the assay)

Molecule	Ki [1] [nM]	Km [2] [µM]
CO[C@@H]1[C@H](OC(=O)/C=C/C=C/C=C/C=C/C(=O)O)CC[C@]2(CO2)[C@H]1[C@@]1(C)O[C@@H]1CC=C(C)C [compound 1, fumagillin]	60 ± 33	–
B1	–	770 ± 40
